“Also recorded” adds a separate entry of the source.
Columns and labels:
[1] = target: T1, HSA–monomeric Aβ40 (recombinant human Aβ40) (Homo sapiens, UniProt P02768); design: method as in PMID 30685090; conditions: cited from earlier work
[2] = target: T2, HSA–monomeric Aβ42 (recombinant human Aβ42) (Homo sapiens, UniProt P02768); design: method as in PMID 30685090; conditions: cited from earlier work
HSA–monomeric Aβ [3] = conditions: cited from earlier work
Excerpt: (§1) An alternative, less invasive approach to the lowering of the free Aβ level in the brain is a pharmacologically guided shift in the equilibrium between HSA and Aβ towards their complex. The latter possibility was recently confirmed by arachidonic/linoleic-aci ...

[4] = test system: brain Aβ deposition in AD mouse models; conditions: dietary; cited from earlier work
Excerpt: as §1

[5] = target: T1, HSA–monomeric Aβ40 (recombinant human Aβ40); assay: SPR of HSA interaction with immobilized monomeric Aβ40, without/with SRO or TRP; conditions: SPR 25 °C; for Kd: KD (apparent, HSA–Aβ40), KD × 10^7, i.e. value × 10^−7 M; for Kd / ka (effective, HSA–Aβ40) / kd (effective, HSA–Aβ40): HSA 5–60 µM, mean ± SD; for ka (effective, HSA–Aβ40): ka × 10^−3, i.e. value × 10^3 M^−1s^−1; for kd (effective, HSA–Aβ40): kd × 10^4, i.e. value × 10^−4 s^−1
Procedure: (§2) The recombinant human Aβ40 or Aβ42 sample was immobilized on the surface of the SPR sensor chip by amine coupling, followed by removal from the surface of the non-covalently bound Aβ molecules by a 2% SDS water solution [12]. […] (5–60 µM) was used as an analyte.
(§3) Aβ40/Aβ42 was immobilized on the sensor chip’s surface by amine coupling.
(§4) Recombinant human Aβ40/Aβ42 samples were pretreated for SPR measurements mainly as described in [46]. The freeze-dried Aβ sample was dissolved in neat TFA at a concentration of 0.5–1 mg/mL. The solution was sonicated for 30 s. TFA was evaporated using Eppendorf Concentrator plus. The dried Aβ sample was dissolved in DMSO at a concentration of 2 mg/mL, and stored at −20 °C.
(§5) SPR measurements were performed at 25 °C using a Bio-Rad ProteOn™ XPR36 instrument mainly as previously described. Ligand (57 μg/mL recombinant human Aβ40/Aβ42 in 10 mM sodium acetate, pH 4.5 buffer) was immobilized on a ProteOn GLH sensor chip surface (up to 7000–9000 RUs) by amine coupling. The remaining activated amine groups on the chip surface were blocked by 1 M ethanolamine solution. The non-covalently bound Aβ40/Aβ42 molecules were washed from the chip surface with 2% SDS water solution until stabilization of the signal. […] The sensor chip surface was regenerated by passage of 10 mM EDTA pH 7.9 solution containing 2% SDS. […] The double-referenced SPR sensograms were globally fitted according to the one-site binding model using Bio-Rad ProteOn Manager™ v.3.1 software.

[6] = target: T2, HSA–monomeric Aβ42 (recombinant human Aβ42); assay: SPR of HSA interaction with immobilized monomeric Aβ42, without/with SRO or TRP; conditions: SPR 25 °C; for Kd: KD (apparent, HSA–Aβ42), KD × 10^7, i.e. value × 10^−7 M; for Kd / ka (effective, HSA–Aβ42) / kd (effective, HSA–Aβ42): HSA 5–60 µM, mean ± SD; for ka (effective, HSA–Aβ42): ka × 10^−3, i.e. value × 10^3 M^−1s^−1; for kd (effective, HSA–Aβ42): kd × 10^4, i.e. value × 10^−4 s^−1
Procedure: as §2, §3, §4, §5

HSA–monomeric Aβ [7] = assay: SPR of HSA interaction with monomeric Aβ (isoform not given); assay type: binding, human
HSA [8] = assay: Glutaraldehyde crosslinking of HSA with SDS-PAGE; design: species or system human; conditions: HSA 36 µM, 37 °C
HSA [9] = assay: Dynamic light scattering of HSA; design: species or system human; conditions: 1 mM SRO, HSA 36 µM, 25 °C, pH 7.4
Procedure: The standard deviations are indicated.
The back-scattered light from a 4 mW He/Ne laser (632.8 nm) was collected at an angle of 173°. The acquisition time for a single autocorrelation function was 45 s. The resulting autocorrelation functions are averaged values from 20 measurements. The volume–size distributions were calculated using the following parameters: a refractive index of 1.330 and a viscosity value of 0.8882 cP.

HSA [10] = test system: HSA; design: method as in PMID 17191887; conditions: read-out: equilibrium dissociation constant (KD) for the HSA–SRO complex; cited from earlier work
Aβ42 = test system: Aβ42; design: method as in PMID 29131485; conditions: 50–100 µM SRO; cited from earlier work
[11] = physiological (endogenous), cited from earlier work
Procedure: (§6) The SRO concentration in plasma is 0.28–1.7 µM [40], but in the synaptic cleft it may reach 6 mM and 55 nM after SRO diffuses into the extracellular compartment.

[12] = test system: Aβ level in interstitial brain fluid; conditions: direct infusion into the hippocampus, mouse model of AD; cited from earlier work
Procedure: as §6

[13] = 1 mM SRO, main cause of KD decrease

T2 sequence (P05067 672-713): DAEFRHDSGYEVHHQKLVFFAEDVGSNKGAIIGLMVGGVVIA
T2 sequence (P02768 25-609): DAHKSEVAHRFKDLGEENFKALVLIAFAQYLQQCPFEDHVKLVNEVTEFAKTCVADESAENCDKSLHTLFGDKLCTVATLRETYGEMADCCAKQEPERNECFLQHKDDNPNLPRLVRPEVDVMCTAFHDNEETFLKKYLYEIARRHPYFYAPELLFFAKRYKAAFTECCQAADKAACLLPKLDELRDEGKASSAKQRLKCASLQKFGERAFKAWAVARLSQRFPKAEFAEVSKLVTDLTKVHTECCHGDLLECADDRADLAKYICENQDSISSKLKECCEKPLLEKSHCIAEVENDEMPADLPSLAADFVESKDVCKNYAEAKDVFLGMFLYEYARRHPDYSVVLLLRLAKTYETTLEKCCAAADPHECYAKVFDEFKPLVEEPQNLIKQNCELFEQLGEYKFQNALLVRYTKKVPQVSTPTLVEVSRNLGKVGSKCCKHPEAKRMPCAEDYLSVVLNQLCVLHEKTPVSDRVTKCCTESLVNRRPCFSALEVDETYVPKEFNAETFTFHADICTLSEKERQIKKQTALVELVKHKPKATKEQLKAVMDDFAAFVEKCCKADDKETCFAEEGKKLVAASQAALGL
T1 sequence (P05067 672-711): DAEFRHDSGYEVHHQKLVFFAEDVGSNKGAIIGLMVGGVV
T1 sequence (P02768 25-609): as the sequence (P02768 25-609) above

Compound: CCCCC/C=C\C/C=C\CCCCCCCC(=O)O [linoleic acid]
- fold decrease in KD of HSA–monomeric Aβ40 [1]: 3 fold
- fold decrease in KD of HSA–monomeric Aβ42 [2]: 3 fold
- effect on HSA affinity to Aβ (HSA–monomeric Aβ [3]): enhancement of HSA affinity to Aβ
- effect on brain Aβ deposition [4]: reduces brain Aβ deposition

Compound: NCCc1c[nH]c2ccc(O)cc12 [SRO, 5-hydroxytryptamine]
- factor of decrease in apparent KD / increase in affinity of HSA–Aβ40 ([5]; 1 mM SRO vs no ligand, pH 7.4): 7 factor
- effect on dissociation of HSA–Aβ40 complex [5, 13]: slowdown of the dissociation process
- Kd ([5]; 10 µM HSA ligand, pH 7.4): 40 ± 20 nM
- Kd ([5]; 100 µM HSA ligand, pH 7.4): 15 ± 13 nM
- Kd ([5]; 1 mM HSA ligand, pH 7.4): 9 ± 5 nM
- ka (effective, HSA–Aβ40) ([5]; 10 µM HSA ligand, pH 7.4): 0.7 ± 0.2 × 10^−3, M^−1s^−1
- ka (effective, HSA–Aβ40) ([5]; 100 µM HSA ligand, pH 7.4): 1.5 ± 1.2 × 10^−3, M^−1s^−1
- ka (effective, HSA–Aβ40) ([5]; 1 mM HSA ligand, pH 7.4): 1.0 ± 0.5 × 10^−3, M^−1s^−1
- kd (effective, HSA–Aβ40) ([5]; 10 µM HSA ligand, pH 7.4): 0.26 ± 0.03 × 10^4, s^−1
- kd (effective, HSA–Aβ40) ([5]; 100 µM HSA ligand, pH 7.4): 0.19 ± 0.12 × 10^4, s^−1
- kd (effective, HSA–Aβ40) ([5]; 1 mM HSA ligand, pH 7.4): 0.09 ± 0.05 × 10^4, s^−1
- factor of decrease in apparent KD / increase in affinity of HSA–Aβ42 ([6]; 1 mM SRO vs no ligand, pH 7.4): 17 factor
- effect on dissociation of HSA–Aβ42 complex [6, 13]: slowdown of the dissociation process
- Kd ([6]; 10 µM HSA ligand, pH 7.4): 40 ± 20 nM
- Kd ([6]; 100 µM HSA ligand, pH 7.4): 9 ± 4 nM
- Kd ([6]; 1 mM HSA ligand, pH 7.4): 7 ± 1.5 nM
- ka (effective, HSA–Aβ42) ([6]; 10 µM HSA ligand, pH 7.4): 0.6 ± 0.4 × 10^−3, M^−1s^−1
- ka (effective, HSA–Aβ42) ([6]; 100 µM HSA ligand, pH 7.4): 0.9 ± 0.2 × 10^−3, M^−1s^−1
- ka (effective, HSA–Aβ42) ([6]; 1 mM HSA ligand, pH 7.4): 1.2 ± 0.2 × 10^−3, M^−1s^−1
- kd (effective, HSA–Aβ42) ([6]; 10 µM HSA ligand, pH 7.4): 0.20 ± 0.14 × 10^4, s^−1
- kd (effective, HSA–Aβ42) ([6]; 100 µM HSA ligand, pH 7.4): 0.08 ± 0.02 × 10^4, s^−1
- kd (effective, HSA–Aβ42) ([6]; 1 mM HSA ligand, pH 7.4): 0.086 ± 0.009 × 10^4, s^−1
- effect on HSA's affinity to Aβ (HSA–monomeric Aβ [7]; 10 µM SRO, SPR 25 °C): absence of a marked influence
- effect on HSA's affinity to monomeric Aβ / activation of HSA–Aβ interaction (HSA–monomeric Aβ [7]; general statement, SPR): the most potent activator of HSA–Aβ interaction reported to date
- fold decrease in KD of HSA–Aβ (HSA–monomeric Aβ [7]; up to, vs no ligand): ≤ 17 fold
- fold increase in content of HSA high-molecular-weight forms (at the expense of the monomer) (HSA [8]; 1 mM SRO, 0.02% glutaraldehyde, 1 h, pH 7.4): approximately 2 fold
- effect on quaternary structure of HSA (HSA [8]; 1 mM ligand, glutaraldehyde crosslinking, overall statements also rest on DLS): more distinct changes in the quaternary structure of HSA, relative to the TRP-induced effects; also recorded: more marked changes in the quaternary structure of HSA
- accumulation of multimeric HSA forms (DLS), compared with TRP (HSA [9]): more prominent accumulation of its multimeric forms
- Kd (HSA [10]): 1600 nM
- inhibition of Aβ42 fibrillation (Aβ42): efficient inhibition of Aβ42 fibrillation; also recorded: potent inhibition of Aβ42 fibrillation
- SRO concentration after diffusion into the extracellular compartment ([11]; may reach): ≤ 55 nM
- SRO concentration in the synaptic cleft ([11]; may reach): ≤ 6 mM
- SRO concentration in plasma [11]: 0.28 to 1.7 µM
- Aβ level in interstitial brain fluid [12]: decrease in the Aβ level in interstitial brain fluid
